Assay results from article PMC9440176, “Novel benzylidene benzofuranone analogues as potential anticancer agents: design, synthesis and in vitro evaluation based on CDK2 inhibition assays” (3 Biotech, 2022).

Tests used:
CDK2/Cyclin A = CDK2/Cyclin A (Homo sapiens, UniProt P24941); test: CDK2/cyclin A inhibitory assay, Z'-LYTE FRET kinase assay; assay type: biochemical; settings: concentration of 100 micro molar; 1000 ng/ml kinase, 1000 µM ATP
From the text: Z’-LYTE® technology involves homogeneous assay design based on FRET and is a universal platform for both screening as well as profiling protein kinases. The assay uses a peptide substrate labeled with two different fluorophores, coumarin donor and fluorescein acceptor on each end. These two fluorophores make up a FRET pair, which allows the transfer of energy when both are present on the same molecule. The initial kinase reaction transfers the ϒ-phosphate of ATP to a tyrosine or serine/threonine residue on the substrate. In a secondary reaction, referred to as the development reaction, a site-specific protease recognizes and cleaves only non-phosphorylated peptide, while phosphorylated substrate remains uncleaved. […] Upon excitation of Coumarin at 400 nm, the FRET signal is measured as a ratio between the Coumarin donor emission at 445–460 nm and the fluorescein acceptor emission at 520–535 nm(Lebakken et al. [2007]).
Initial ten-fold and two-fold dilutions of Kinase and ATP concentrations were used to choose the optimal Kinase and ATP concentration based on the % Phosphorylation.
The assay was carried out according to the kit instructions (384 well format). Briefly, 5X kinase buffer [250 mM HEPES (pH 7.5), 50 mM MgCl2, 5 mM EGTA, 0.05% BRIJ-35] was diluted to 1X using distilled water. The phosphor peptide positive control (Z’-LYTE® Tyr 4 phospho-peptide) and the non-phosphorylated negative control (Z’-LYTE® Tyr 4 peptide) were then diluted to 1:500 with 1× kinase buffer to 2 μM. […] Working development solution was then made by diluting 12 μL of the provided stock solution with 388 μL of the provided development buffer. Aliquots (20 μL) of each peptide mixture were then added to the wells of a Corning 3914 solid white microplate in replicates of 8. The development reaction was initiated by the addition of 10 μL of working development-solution to all the wells. Further, the plates were allowed to incubate at room temperature for 60 min. Reactions were then stopped by the addition of 10 μL of stop solution (Jia et al. [2008]).
Reactions were quantitated using a Tecan Robotic Microplate Reader. Reader control, blank subtraction, ratio metric calculations and finally graph plotting were carried out using Gen5™ Data Analysis Software.
The CDK2/Cyclin A assay was carried out as per the manufacturer’s instruction using suitable controls and standard.
The inhibitory assay was carried out using the stock of 10 mM in DMSO. Samples were further serially diluted to obtain concentrations of 100 μM. The concentrations were chosen based on the IC50 values obtained in the MTT assay. A total of 23 analogues were selected for the assay based on their antiproliferative activity. Further, selected compounds were screened and tested against the target CDK2/Cyclin A, and their % phosphorylation and % inhibition were recorded.

[1] = tested on: CDK2 gene expression in HCT 116 cell lines; test: Semi-quantitative RT-PCR gene expression of CDK2; assay type: cell-based, Human; settings: for Relative gene expression of CDK2: control 1.00
Description: (§1) HCT-116 cells were trypsinized and added to 1 ml TRIzol and vortexed. Samples were then allowed to stand for 5 min at room temperature. 0.2 ml of chloroform per 1 ml of TRIzol was added. The tube was later stoppered and shaken vigorously for 15 s and was allowed to stand at room temperature for 5 min. The resulting mixture was then centrifuged at 10,000×rpm for 15 min at […]. The upper aqueous phase was transferred to another clean tube followed by the addition of 0.5 ml of isopropanol per 1 ml of TRIzol. The contents were mixed gently by inverting the sample 5 times and incubated at room temperature for 5 min. Further, the tubes were centrifuged at 10,000×rpm for the next 10 min at […]. Later, the supernatant was discarded and the RNA pellet was washed by adding 1 ml of 70% ethanol. Further, the contents were mixed gently by inverting the sample for few times. It was again centrifuged for 5 min at 14,000×rpm at […]. In the later step, the supernatant was discarded by inverting the tube on a clean tissue paper. Later, the pellet was dried by incubating in a […] for 5 min at 55 °C. The pellet was then resuspended in 25 µL of DEPC (Diethyl pyro carbonate) treated water.
(§2) A semi-quantitative reverse transcriptase polymerase chain reaction (RT-PCR) was carried out using Techno Prime system to determine the levels of β-actin and CDK-2 and CyclinA mRNA expression. The cDNA was synthesized from 2 µg of RNA using the Verso cDNA synthesis kit (Thermo Fischer Scientific) with oligo dT (deoxy thymine) primer according to the manufacturer’s instructions. The reaction volume was set to 20 μL and the cDNA synthesis was performed at 42 °C for 60 min followed by RT inactivation at 85 °C for 5 min (Murakami [1996]).
(§3) The PCR mixture (final volume of 20 µL) contains 1 µL of cDNA, 10 µL of Red Taq Master Mix 2× (Ampliqon) and 1 µM of each complementary primer specific for CDK2 and CyclinA and β-actin (internal control) sequence. The samples are denatured at 95 °C for 5 min and amplified using 35 cycles of 95 °C for 30 s then again at 55 °C for 30 s and 72 °C for 1 min for β-actin; the […] annealing was finally set to 56 °C followed by the final elongation at 72 °C for 10 min. […] Ten microliters of the final amplification product are run on a 2% ethidium-stained agarose gel and photographed. Quantification of the results could be accomplished by measuring the optical density of the bands, using the computerized imaging program Image J. The values were normalized to β-actin intensity levels (Bookout and Mangelsdorf [2003]).

[2] = tested on: Cyclin A gene expression in HCT 116 cell lines; test: Semi-quantitative RT-PCR gene expression of Cyclin A; assay type: cell-based, Human; settings: for CyclinA expression profile (in words): HCT 116; for Relative gene expression of Cyclin A: control 1.00
Description: as §1, §2, §3

COc1ccc(/C=C2\Oc3c(c(OC)cc(OC)c3C3=CCN(C(C)C)CC3)C2=O)cc1OC [NISOA4]
% inhibition on CDK2/cyclin A (CDK2/Cyclin A): 42.787% | Band intensity of PCR amplicon of genes, CDK2 ([1]; 12.5 μM): 16,091.61 | Normalized (CDK2 to β-actin) ([1]; 12.5 μM): 0.63 | expression of CDK2 (in words) ([1]; 12.5 μM and 25 μM, HCT 116): clear dose-dependent decrease | Relative gene expression of CDK2 ([1]; 12.5 μM): 0.59 | Band intensity of PCR amplicon of genes, CDK2 ([1]; 25 μM): 13,190.418 | Normalized (CDK2 to β-actin) ([1]; 25 μM): 0.52 | Relative gene expression of CDK2 ([1]; 25 μM): 0.49 | Band intensity Of PCR Amplicon Of genes, Cyclin A ([2]; 12.5 μM): 16,245.903 | Normalized (Cyclin A to β-actin) ([2]; 12.5 μM): 0.64 | CyclinA expression profile (in words) ([2]; 12.5 μM): very little or no reduction | Relative gene expression of Cyclin A ([2]; 12.5 μM): 1.00 | Band intensity Of PCR Amplicon Of genes, Cyclin A ([2]; 25 μM): 10,798.368 | Normalized (Cyclin A to β-actin) ([2]; 25 μM): 0.43 | CyclinA expression profile (in words) ([2]; 25 μM): clear decrease | Relative gene expression of Cyclin A ([2]; 25 μM): 0.67
